Values after ≈ are worked out from the molar mass of the structure shown. Active and inactive are the calls of the source. The rule behind the calls is not given here.
Tests used:
[1] = system: Staphylococcus aureus; assay: Antibacterial activity against Staphylococcus aureus at 100 ug/disk; assay type: functional; conditions: read-out: IZ
[2] = system: Escherichia coli; assay: Antibacterial activity against Escherichia coli at 100 ug/disk; assay type: functional, organism-based
[3] = system: P388; assay: Cytotoxicity against mouse P388 cells; assay type: functional, cell-based
[4] = system: A549; assay: Cytotoxicity against human A549 cells; assay type: functional, cell-based
[5] = system: HT-29; assay: Cytotoxicity against human HT-29 cells; assay type: functional, cell-based
[6] = system: KB; assay: Cytotoxicity against human KB cells; assay type: functional, cell-based
[7] = system: Human immunodeficiency virus 1; assay: Antiviral activity against HIV1 Haitian RF at 1 ug/mL; assay type: functional, organism-based

| Compound | zone of inhibition at 100 µg/disc [1] [mm] | Activity [2] | IC50 [3] [µg/mL] | IC50 [4] [µg/mL] | IC50 [5] [µg/mL] | IC50 [6] [µg/mL] | Activity [7] |
| --- | --- | --- | --- | --- | --- | --- | --- |
| COc1ccc(C/C(=N\O)C(=O)NCCc2cc(Br)c(OCCCN)c(Br)c2)cc1Br [APLYSAMINE 3] | 10 | inactive | 1 (≈ 1.61 µM) | 2 (≈ 3.21 µM) | 2 (≈ 3.21 µM) | 5 (≈ 8.04 µM) | inactive |
| Br.COc1c(Br)cc(C/C(=N\O)C(=O)NCCc2cc(Br)c(OCCCN)c(Br)c2)cc1Br [APLYSAMINE 4] | 10 | inactive | 2.5 | 2.5 | 2.5 | 5 | inactive |
| COc1ccc(C/C(=N\O)C(=O)NCCc2cc(Br)c(OCCCNC(=O)CCCCCCCCCCCC(C)C)c(Br)c2)cc1Br [APLYSAMINE 5] |  |  | 10 (≈ 11.8 µM) | 2.5 (≈ 2.95 µM) | 2.5 (≈ 2.95 µM) | 2 (≈ 2.36 µM) | inactive |
